Test results from patent US11912660B2, “S6K1 protein kinase inhibitors as cancer therapeutics” (Xavier University of Louisiana, priority 2020, dated 2024).
Where two headings read alike, the source gives them in different places.

Assays:
Test in all cases: SelectScreen kinase panel screening
Format in all cases: biochemical
[1] = target: RET (Homo sapiens (Human), UniProt P07949)
Source text: (§1) The complete list of the kinases given in Table 1 and their details can be found on the ThermoFisher website for Biochemical Kinase assays (thermofisher.com/us/en/home/industrial/pharma-biopharma/drug-discovery-development/target-and-lead-identification-and-validation/kinasebiology.html).

[2] = target: CHEK1 (CHK1) (Homo sapiens (Human), UniProt O14757)
Source text: as §1

[3] = target: IKBKB (IKK beta) (Homo sapiens (Human), UniProt O14920)
Source text: as §1

[4] = target: MST4 (Homo sapiens (Human), UniProt Q9P289)
Source text: as §1

[5] = target: EGFR (ErbB1) (Homo sapiens (Human), UniProt P00533)
Source text: as §1

[6] = target: EPHB4 (Homo sapiens (Human), UniProt P54760)
Source text: as §1

[7] = target: ALK (Homo sapiens (Human), UniProt Q9UM73)
ALK, sequence (Q9UM73 19-1620): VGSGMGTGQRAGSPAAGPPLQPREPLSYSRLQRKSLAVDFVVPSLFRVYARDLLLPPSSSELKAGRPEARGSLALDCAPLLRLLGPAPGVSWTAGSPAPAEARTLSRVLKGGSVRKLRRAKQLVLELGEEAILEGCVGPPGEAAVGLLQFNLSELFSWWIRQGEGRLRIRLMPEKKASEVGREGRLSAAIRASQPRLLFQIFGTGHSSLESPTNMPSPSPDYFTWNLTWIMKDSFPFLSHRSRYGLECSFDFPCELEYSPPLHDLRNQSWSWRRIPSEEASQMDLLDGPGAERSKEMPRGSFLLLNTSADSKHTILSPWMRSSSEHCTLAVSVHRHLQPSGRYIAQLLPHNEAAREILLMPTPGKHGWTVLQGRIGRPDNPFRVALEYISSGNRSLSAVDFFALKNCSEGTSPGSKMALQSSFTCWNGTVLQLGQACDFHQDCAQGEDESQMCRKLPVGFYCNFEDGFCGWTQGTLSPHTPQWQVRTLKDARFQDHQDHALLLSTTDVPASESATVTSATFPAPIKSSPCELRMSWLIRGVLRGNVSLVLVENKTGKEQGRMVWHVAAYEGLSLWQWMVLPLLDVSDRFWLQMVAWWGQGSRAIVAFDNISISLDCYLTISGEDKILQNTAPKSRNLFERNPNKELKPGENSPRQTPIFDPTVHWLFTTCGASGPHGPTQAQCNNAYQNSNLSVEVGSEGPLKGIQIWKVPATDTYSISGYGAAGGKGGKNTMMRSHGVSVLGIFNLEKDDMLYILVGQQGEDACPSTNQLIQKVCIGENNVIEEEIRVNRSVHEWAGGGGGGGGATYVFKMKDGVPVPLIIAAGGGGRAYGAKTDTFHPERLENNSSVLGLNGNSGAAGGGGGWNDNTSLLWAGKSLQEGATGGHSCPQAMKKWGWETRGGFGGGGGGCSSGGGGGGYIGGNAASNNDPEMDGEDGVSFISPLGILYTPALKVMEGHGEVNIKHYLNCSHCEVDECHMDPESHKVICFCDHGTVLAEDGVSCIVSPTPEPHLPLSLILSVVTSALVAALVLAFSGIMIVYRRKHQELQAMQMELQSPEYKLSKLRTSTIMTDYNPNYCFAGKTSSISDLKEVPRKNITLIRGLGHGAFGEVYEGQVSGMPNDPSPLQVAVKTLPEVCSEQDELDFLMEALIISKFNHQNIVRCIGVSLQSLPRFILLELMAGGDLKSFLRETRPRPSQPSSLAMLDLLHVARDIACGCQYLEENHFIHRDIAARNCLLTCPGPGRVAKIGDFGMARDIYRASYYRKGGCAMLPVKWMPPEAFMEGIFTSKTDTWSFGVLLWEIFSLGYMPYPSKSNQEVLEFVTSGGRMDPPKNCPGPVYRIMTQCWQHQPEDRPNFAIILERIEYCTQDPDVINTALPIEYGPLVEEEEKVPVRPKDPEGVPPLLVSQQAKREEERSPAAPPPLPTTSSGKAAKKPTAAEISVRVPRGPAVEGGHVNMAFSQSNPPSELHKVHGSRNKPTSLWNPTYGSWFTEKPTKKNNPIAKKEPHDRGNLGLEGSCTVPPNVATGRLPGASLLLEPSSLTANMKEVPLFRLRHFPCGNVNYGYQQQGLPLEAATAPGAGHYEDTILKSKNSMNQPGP
Source text: as §1

[8] = target: CDC42 BPA (MRCKA) (Homo sapiens (Human), UniProt Q5VT25)
Source text: as §1

[9] = target: MAP4K4 (HGK) (Homo sapiens (Human), UniProt O95819)
Source text: as §1

[10] = target: CDK1/cyclin B (Homo sapiens (Human), UniProt P06493)
Source text: as §1

[11] = target: HCK (Homo sapiens (Human), UniProt P08631)
HCK, sequence (P08631 whole entry): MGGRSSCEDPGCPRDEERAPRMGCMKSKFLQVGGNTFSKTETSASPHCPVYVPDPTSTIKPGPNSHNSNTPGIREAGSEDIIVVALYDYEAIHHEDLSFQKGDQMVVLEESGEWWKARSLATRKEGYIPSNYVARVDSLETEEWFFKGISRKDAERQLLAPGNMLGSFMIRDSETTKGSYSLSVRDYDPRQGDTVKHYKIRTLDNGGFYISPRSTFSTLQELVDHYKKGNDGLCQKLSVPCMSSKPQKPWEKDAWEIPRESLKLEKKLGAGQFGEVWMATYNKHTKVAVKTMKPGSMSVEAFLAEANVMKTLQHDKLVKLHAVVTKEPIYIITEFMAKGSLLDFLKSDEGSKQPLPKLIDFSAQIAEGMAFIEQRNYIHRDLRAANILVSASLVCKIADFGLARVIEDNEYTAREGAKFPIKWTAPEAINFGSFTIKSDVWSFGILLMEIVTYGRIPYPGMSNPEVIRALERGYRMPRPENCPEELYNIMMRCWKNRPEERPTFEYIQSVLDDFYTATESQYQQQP
Source text: as §1

[12] = target: EPHA1 (Homo sapiens (Human), UniProt P21709)
Source text: as §1

[13] = target: PTK6 (Brk) (Homo sapiens (Human), UniProt Q13882)
Source text: as §1

[14] = target: LCK (Homo sapiens (Human), UniProt P06239)
Source text: as §1

[15] = target: BRAF (Homo sapiens (Human), UniProt P15056)
Source text: as §1

[16] = target: FGFR1 (Homo sapiens (Human), UniProt P11362)
Source text: as §1

[17] = target: PDGFRB (PDGFR beta) (Homo sapiens (Human), UniProt P09619)
PDGFRB (PDGFR beta), sequence (P09619 33-1106): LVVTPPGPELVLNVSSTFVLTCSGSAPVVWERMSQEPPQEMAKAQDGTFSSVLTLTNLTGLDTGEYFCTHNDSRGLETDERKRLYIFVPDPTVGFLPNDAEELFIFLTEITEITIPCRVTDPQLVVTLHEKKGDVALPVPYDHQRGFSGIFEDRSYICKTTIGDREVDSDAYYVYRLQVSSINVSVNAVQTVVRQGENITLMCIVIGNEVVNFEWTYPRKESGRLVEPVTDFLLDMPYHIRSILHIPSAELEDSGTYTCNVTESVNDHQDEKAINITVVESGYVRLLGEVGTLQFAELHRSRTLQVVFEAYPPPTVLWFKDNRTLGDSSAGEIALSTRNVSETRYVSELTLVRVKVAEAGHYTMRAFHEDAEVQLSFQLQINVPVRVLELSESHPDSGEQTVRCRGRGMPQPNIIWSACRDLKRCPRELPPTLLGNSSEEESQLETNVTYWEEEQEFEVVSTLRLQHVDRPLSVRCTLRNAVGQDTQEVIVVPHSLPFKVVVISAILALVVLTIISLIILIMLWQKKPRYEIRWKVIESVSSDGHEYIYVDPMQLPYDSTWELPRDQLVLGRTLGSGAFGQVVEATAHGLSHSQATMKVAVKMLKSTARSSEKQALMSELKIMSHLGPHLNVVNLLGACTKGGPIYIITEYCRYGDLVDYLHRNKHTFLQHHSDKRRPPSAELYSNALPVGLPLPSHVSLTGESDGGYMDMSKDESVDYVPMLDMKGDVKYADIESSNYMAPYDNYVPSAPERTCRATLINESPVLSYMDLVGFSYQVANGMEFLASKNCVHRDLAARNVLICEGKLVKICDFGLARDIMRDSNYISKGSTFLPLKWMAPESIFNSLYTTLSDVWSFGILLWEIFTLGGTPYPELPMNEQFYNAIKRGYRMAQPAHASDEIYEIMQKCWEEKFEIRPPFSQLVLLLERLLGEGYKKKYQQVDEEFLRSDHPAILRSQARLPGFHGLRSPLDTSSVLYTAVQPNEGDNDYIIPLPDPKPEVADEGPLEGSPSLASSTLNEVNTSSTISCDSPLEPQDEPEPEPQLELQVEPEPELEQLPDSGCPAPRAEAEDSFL
Source text: as §1

[18] = target: PIM1 (Homo sapiens (Human), UniProt P11309)
Source text: as §1

[19] = target: CDK5/p25 (Homo sapiens (Human), UniProt Q00535)
Source text: as §1

[20] = target: PDK1 Direct (Homo sapiens (Human), UniProt O15530)
Source text: as §1

[21] = target: FGFR4 (Homo sapiens (Human), UniProt P22455)
FGFR4, sequence (P22455 22-802): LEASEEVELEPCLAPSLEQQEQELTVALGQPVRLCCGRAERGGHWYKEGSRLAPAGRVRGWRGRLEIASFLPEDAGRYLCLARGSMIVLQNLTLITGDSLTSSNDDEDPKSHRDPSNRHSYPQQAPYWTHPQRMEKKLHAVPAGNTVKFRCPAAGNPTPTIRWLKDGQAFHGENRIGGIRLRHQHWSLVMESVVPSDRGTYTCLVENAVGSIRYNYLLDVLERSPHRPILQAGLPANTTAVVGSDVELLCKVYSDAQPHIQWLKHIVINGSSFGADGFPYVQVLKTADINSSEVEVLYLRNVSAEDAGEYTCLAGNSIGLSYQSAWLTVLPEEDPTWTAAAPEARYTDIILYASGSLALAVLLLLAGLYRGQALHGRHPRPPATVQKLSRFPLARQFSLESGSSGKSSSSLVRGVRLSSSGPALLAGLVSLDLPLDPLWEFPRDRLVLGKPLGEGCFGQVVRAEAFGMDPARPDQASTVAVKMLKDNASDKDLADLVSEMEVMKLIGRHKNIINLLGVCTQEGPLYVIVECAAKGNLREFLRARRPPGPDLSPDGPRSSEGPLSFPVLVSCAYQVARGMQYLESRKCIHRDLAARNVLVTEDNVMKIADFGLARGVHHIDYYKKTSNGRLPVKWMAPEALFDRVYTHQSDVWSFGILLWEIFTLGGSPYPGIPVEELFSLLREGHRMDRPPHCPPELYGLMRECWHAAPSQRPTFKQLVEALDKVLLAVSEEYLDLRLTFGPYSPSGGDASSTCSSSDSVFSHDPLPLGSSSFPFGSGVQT
Source text: as §1

[22] = target: EPHB2 (Homo sapiens (Human), UniProt P29323)
Source text: as §1

[23] = target: KDR (VEGFR2) (Homo sapiens (Human), UniProt P35968)
Source text: as §1

[24] = target: CSNK2A1 (CK2 alpha 1) (Homo sapiens (Human), UniProt P68400)
Source text: as §1

[25] = target: CDK9/cyclin T1 (Homo sapiens (Human), UniProt P50750)
CDK9/cyclin T1, sequence (P50750 whole entry): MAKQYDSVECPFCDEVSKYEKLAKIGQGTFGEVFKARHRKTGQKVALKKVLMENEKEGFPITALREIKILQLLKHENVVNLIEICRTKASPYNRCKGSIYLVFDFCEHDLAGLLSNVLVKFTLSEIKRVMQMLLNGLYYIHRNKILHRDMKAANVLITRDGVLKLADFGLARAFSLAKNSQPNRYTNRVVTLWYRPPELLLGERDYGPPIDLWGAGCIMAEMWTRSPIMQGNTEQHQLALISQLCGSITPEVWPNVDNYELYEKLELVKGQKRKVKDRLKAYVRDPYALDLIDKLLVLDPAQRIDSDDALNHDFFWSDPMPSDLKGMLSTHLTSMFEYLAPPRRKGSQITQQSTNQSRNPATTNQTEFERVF
CDK9/cyclin T1, sequence (O60563 whole entry partner): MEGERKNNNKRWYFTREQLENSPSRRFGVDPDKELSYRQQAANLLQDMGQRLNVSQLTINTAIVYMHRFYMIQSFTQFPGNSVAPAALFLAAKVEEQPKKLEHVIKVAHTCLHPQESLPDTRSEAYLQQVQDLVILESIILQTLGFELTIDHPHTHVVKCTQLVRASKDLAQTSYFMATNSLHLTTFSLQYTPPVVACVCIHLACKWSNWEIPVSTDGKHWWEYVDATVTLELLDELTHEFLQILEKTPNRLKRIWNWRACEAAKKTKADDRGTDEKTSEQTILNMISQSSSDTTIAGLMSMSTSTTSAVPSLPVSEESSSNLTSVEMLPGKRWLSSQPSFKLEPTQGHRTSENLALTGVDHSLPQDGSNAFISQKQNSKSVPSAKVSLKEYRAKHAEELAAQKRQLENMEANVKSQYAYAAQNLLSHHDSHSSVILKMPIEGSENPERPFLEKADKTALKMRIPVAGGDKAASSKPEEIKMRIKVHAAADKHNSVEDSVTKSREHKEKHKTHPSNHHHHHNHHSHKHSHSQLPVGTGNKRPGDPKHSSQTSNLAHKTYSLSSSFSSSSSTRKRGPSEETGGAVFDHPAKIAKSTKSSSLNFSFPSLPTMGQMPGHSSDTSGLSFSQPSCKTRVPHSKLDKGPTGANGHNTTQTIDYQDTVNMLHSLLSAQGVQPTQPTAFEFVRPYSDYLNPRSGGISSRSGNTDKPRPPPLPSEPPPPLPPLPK
Source text: as §1

[26] = target: FLT3 (Homo sapiens (Human), UniProt P36888)
Source text: as §1

[27] = target: ABL1 (Homo sapiens (Human), UniProt P00519)
Source text: as §1

[28] = target: MET (cMet) (Homo sapiens (Human), UniProt P08581)
Source text: as §1

[29] = target: AXL (Homo sapiens (Human), UniProt P30530)
Source text: as §1

[30] = target: CDK2/cyclin A (Homo sapiens (Human), UniProt P24941)
Source text: as §1

[31] = target: AURKA (Aurora A) (Homo sapiens (Human), UniProt O14965)
Source text: as §1

[32] = target: FRAP1 (mTOR) (Homo sapiens (Human), UniProt P42345)
Source text: as §1

inhibition at 10 µM ([1]; read-out: % Inhibition): 79%
inhibition at 10 µM ([1]; read-out: % Inhibition class): 40 to 80%
inhibition at 10 µM ([2]; read-out: % Inhibition): 72%
inhibition at 10 µM ([2]; read-out: % Inhibition class): 40 to 80%
inhibition at 10 µM ([3]; read-out: % Inhibition): 16%
inhibition at 10 µM ([3]; read-out: % Inhibition class): < 40%
inhibition at 10 µM ([4]; read-out: % Inhibition): 52%
inhibition at 10 µM ([4]; read-out: % Inhibition class): 40 to 80%
inhibition at 10 µM ([5]; read-out: % Inhibition): 12%
inhibition at 10 µM ([5]; read-out: % Inhibition class): < 40%
inhibition at 10 µM ([6]; read-out: % Inhibition): 9%
inhibition at 10 µM ([6]; read-out: % Inhibition class): < 40%
inhibition at 10 µM ([7]; read-out: % Inhibition): 32%
inhibition at 10 µM ([7]; read-out: % Inhibition class): < 40%
inhibition at 10 µM ([8]; read-out: % Inhibition): 0%
inhibition at 10 µM ([8]; read-out: % Inhibition class): < 40%
inhibition at 10 µM ([9]; read-out: % Inhibition): 66%
inhibition at 10 µM ([9]; read-out: % Inhibition class): 40 to 80%
inhibition at 10 µM ([10]; read-out: % Inhibition): 8%
inhibition at 10 µM ([10]; read-out: % Inhibition class): < 40%
inhibition at 10 µM ([11]; read-out: % Inhibition): 21%
inhibition at 10 µM ([11]; read-out: % Inhibition class): < 40%
inhibition at 10 µM ([12]; read-out: % Inhibition): 15%
inhibition at 10 µM ([12]; read-out: % Inhibition class): < 40%
inhibition at 10 µM ([13]; read-out: % Inhibition): 4%
inhibition at 10 µM ([13]; read-out: % Inhibition class): < 40%
inhibition at 10 µM ([14]; read-out: % Inhibition): 31%
inhibition at 10 µM ([14]; read-out: % Inhibition class): < 40%
inhibition at 10 µM ([15]; read-out: % Inhibition): 19%
inhibition at 10 µM ([15]; read-out: % Inhibition class): < 40%
inhibition at 10 µM ([16]; read-out: % Inhibition): 51%
inhibition at 10 µM ([16]; read-out: % Inhibition class): 40 to 80%
inhibition at 10 µM ([17]; read-out: % Inhibition): 5%
inhibition at 10 µM ([17]; read-out: % Inhibition class): < 40%
inhibition at 10 µM ([18]; read-out: % Inhibition): 35%
inhibition at 10 µM ([18]; read-out: % Inhibition class): < 40%
inhibition at 10 µM ([19]; read-out: % Inhibition): 27%
inhibition at 10 µM ([19]; read-out: % Inhibition class): < 40%
inhibition at 10 µM ([20]; read-out: % Inhibition): 33%
inhibition at 10 µM ([20]; read-out: % Inhibition class): < 40%
inhibition at 10 µM ([21]; read-out: % Inhibition): 20%
inhibition at 10 µM ([21]; read-out: % Inhibition class): < 40%
inhibition at 10 µM ([22]; read-out: % Inhibition): 10%
inhibition at 10 µM ([22]; read-out: % Inhibition class): < 40%
inhibition at 10 µM ([23]; read-out: % Inhibition): 56%
inhibition at 10 µM ([23]; read-out: % Inhibition class): 40 to 80%
inhibition at 10 µM ([24]; read-out: % Inhibition): 5%
inhibition at 10 µM ([24]; read-out: % Inhibition class): < 40%
% Inhibition ([25]; 10 μM): 16%
inhibition at 10 µM ([25]; read-out: % Inhibition): 10%
inhibition at 10 µM ([25]; read-out: % Inhibition class): < 40%
inhibition at 10 µM ([26]; read-out: % Inhibition): 29%
inhibition at 10 µM ([26]; read-out: % Inhibition class): < 40%
inhibition at 10 µM ([27]; read-out: % Inhibition): 59%
inhibition at 10 µM ([27]; read-out: % Inhibition class): 40 to 80%
inhibition at 10 µM ([28]; read-out: % Inhibition): -4%
inhibition at 10 µM ([28]; read-out: % Inhibition class): < 40%
inhibition at 10 µM ([29]; read-out: % Inhibition): 10%
inhibition at 10 µM ([29]; read-out: % Inhibition class): < 40%
inhibition at 10 µM ([30]; read-out: % Inhibition): 9%
inhibition at 10 µM ([30]; read-out: % Inhibition class): < 40%
inhibition at 10 µM ([31]; read-out: % Inhibition): 43%
inhibition at 10 µM ([31]; read-out: % Inhibition class): 40 to 80%
inhibition at 10 µM ([32]; read-out: % Inhibition): 6%
inhibition at 10 µM ([32]; read-out: % Inhibition class): < 40%
Compound: Nc1cc(N)c2c(c1)C(=O)NC2=O [RJ1, 4,6-diaminoisoindoline-1,3-dione]
